Results published in ChEMBL document CHEMBL4038272, “Synthesis and biological evaluation of novel podophyllotoxin-NSAIDs conjugates as multifunctional anti-MDR agents against resistant human hepatocellular carcinoma Bel-7402/5-FU cells” (Eur J Med Chem, 2017).
Activity calls are given as the source filed them. No cut-off for these calls is given here.

Tests used:
Bel-7402 = experiment: Antiproliferative activity against human Bel7402 cells after 72 hrs by CCK-8 assay; format: functional, cell-based; settings: Bel-7402, 72 h
Bel7402/5-FU [1] = experiment: Antiproliferative activity against human Bel7402/5-FU cells after 72 hrs by CCK-8 assay; format: functional, cell-based
L02 = experiment: Antiproliferative activity against human LO2 cells after 72 hrs by CCK-8 assay; format: cell-based; settings: L02, 72 h
[2] = Resistant factor, ratio of IC50 for human Bel7402/5-FU cells to IC50 for human Bel7402 cells; format: functional
Bel7402/5-FU [3] = experiment: Cell cycle arrest in human Bel7402/5-FU cells assessed as accumulation at G1 phase at 0.05 uM after 48 hrs by propidium iodide staining based flow cytometry (reference value: 52.21%); format: functional
Bel7402/5-FU [4] = experiment: Cell cycle arrest in human Bel7402/5-FU cells assessed as accumulation at S phase at 0.05 uM after 48 hrs by propidium iodide staining based flow cytometry (reference value: 12.62%); format: functional
Bel7402/5-FU [5] = experiment: Cell cycle arrest in human Bel7402/5-FU cells assessed as accumulation at G2 phase at 0.05 uM after 48 hrs by propidium iodide staining based flow cytometry (reference value: 35.16%); format: functional
Bel7402/5-FU [6] = experiment: Induction of apoptosis in human Bel7402/5-FU cells assessed as reduction in cell number at 0.05 uM after 24 hrs by Hoechst 33342 staining based fluorescent microscopic method; format: functional
Bel7402/5-FU [7] = experiment: Induction of apoptosis in human Bel7402/5-FU cells assessed as morphological changes at 0.05 uM after 24 hrs by Hoechst 33342 staining based fluorescent microscopic method; format: functional, cell-based
Bel7402/5-FU [8] = experiment: Induction of apoptosis in human Bel7402/5-FU cells assessed as condensed nuclei at 0.05 uM after 24 hrs by Hoechst 33342 staining based fluorescent microscopic method; format: functional, cell-based
Bel7402/5-FU [9] = experiment: Induction of apoptosis in human Bel7402/5-FU cells at 0.05 uM after 24 hrs by Hoechst 33342 staining based fluorescent microscopic method; format: functional, cell-based
Bel7402/5-FU [10] = experiment: Induction of apoptosis in human Bel7402/5-FU cells assessed as live cells at 0.05 uM after 48 hrs by Annexin V-APC/7-AAD staining based flow cytometry (reference value: 91.08%); format: functional
Bel7402/5-FU [11] = experiment: Induction of apoptosis in human Bel7402/5-FU cells assessed as early apoptotic cells at 0.05 uM after 48 hrs by Annexin V-APC/7-AAD staining based flow cytometry (reference value: 5.24%); format: functional
Bel7402/5-FU [12] = experiment: Induction of apoptosis in human Bel7402/5-FU cells assessed as late apoptotic cells at 0.05 uM after 48 hrs by Annexin V-APC/7-AAD staining based flow cytometry (reference value: 3%); format: functional
Bel7402/5-FU [13] = experiment: Induction of apoptosis in human Bel7402/5-FU cells assessed as necrotic cells at 0.05 uM after 48 hrs by Annexin V-APC/7-AAD staining based flow cytometry (reference value: 0.58%); format: functional
Bel7402/5-FU [14] = experiment: Induction of microtubule disruption in human Bel7402/5-FU cells at 0.05 uM after 24 to 48 hrs by DAPI staining based immunofluorescence microscopic method; format: functional, cell-based
Bel7402/5-FU [15] = experiment: Reduction in microtubule density in human Bel7402/5-FU cells at 0.05 uM after 24 to 48 hrs by DAPI staining based immunofluorescence microscopic method; format: functional, cell-based
Bel7402/5-FU [16] = experiment: Antimigratory activity in human Bel7402/5-FU cells at 0.05 uM after 24 hrs by wound healing assay; format: functional, cell-based
Bel7402/5-FU [17] = experiment: Effect on CDK1 expression in human Bel7402/5-FU cells assessed as ratio of CDK1 to beta-actin level at 0.05 uM after 48 hrs by Western blot analysis (reference value: 0.33); format: functional
Bel7402/5-FU [18] = experiment: Effect on CDK2 expression in human Bel7402/5-FU cells assessed as ratio of CDK2 to beta-actin level at 0.05 uM after 48 hrs by Western blot analysis (reference value: 0.43); format: functional
Bel7402/5-FU [19] = experiment: Effect on cyclinA expression in human Bel7402/5-FU cells assessed as ratio of cyclinA to beta-actin level at 0.05 uM after 48 hrs by Western blot analysis (reference value: 0.39); format: functional
Bel7402/5-FU [20] = experiment: Effect on cyclinB1 expression in human Bel7402/5-FU cells assessed as ratio of cyclinB1 to beta-actin level at 0.05 uM after 48 hrs by Western blot analysis (reference value: 0.53); format: functional
Bel7402/5-FU [21] = experiment: Induction of apoptosis in human Bel7402/5-FU cells assessed as ratio of cleaved caspase-3 to beta-actin level at 0.05 uM after 48 hrs by Western blot analysis (reference value: 0.19); format: functional
Bel7402/5-FU [22] = experiment: Induction of apoptosis in human Bel7402/5-FU cells assessed as ratio of cleaved caspase-8 to beta-actin level at 0.05 uM after 48 hrs by Western blot analysis (reference value: 0.17); format: functional
Bel7402/5-FU [23] = experiment: Induction of apoptosis in human Bel7402/5-FU cells assessed as ratio of cleaved caspase-9 to beta-actin level at 0.05 uM after 48 hrs by Western blot analysis (reference value: 0.17); format: functional
Bel7402/5-FU [24] = experiment: Induction of apoptosis in human Bel7402/5-FU cells assessed as ratio of cleaved PARP to beta-actin level at 0.05 uM after 48 hrs by Western blot analysis (reference value: 0.2); format: functional
Bel7402/5-FU [25] = experiment: Effect on VEGFR2 expression in human Bel7402/5-FU cells assessed as ratio of VEGFR2 to beta-actin level at 0.05 uM after 48 hrs by Western blot analysis (reference value: 0.25); format: functional
Bel7402/5-FU [26] = experiment: Effect on MMP2 expression in human Bel7402/5-FU cells assessed as ratio of MMP2 to beta-actin level at 0.05 uM after 48 hrs by Western blot analysis (reference value: 0.3); format: functional
Bel7402/5-FU [27] = experiment: Effect on E-cadherin expression in human Bel7402/5-FU cells assessed as ratio of E-cadherin to beta-actin level at 0.05 uM after 48 hrs by Western blot analysis (reference value: 0.2); format: functional
Bel7402/5-FU [28] = experiment: Effect on COX1 expression in human Bel7402/5-FU cells assessed as ratio of COX1 to beta-actin level at 0.05 uM after 48 hrs by Western blot analysis (reference value: 0.48); format: functional
Bel7402/5-FU [29] = experiment: Effect on COX2 expression in human Bel7402/5-FU cells assessed as ratio of COX2 to beta-actin level at 0.05 uM after 48 hrs by Western blot analysis (reference value: 0.36); format: functional
Bel7402/5-FU [30] = experiment: Effect on iNOS expression in human Bel7402/5-FU cells assessed as ratio of iNOS to beta-actin level at 0.05 uM after 48 hrs by Western blot analysis (reference value: 0.13); format: functional
Bel7402/5-FU [31] = experiment: Effect on P-gp expression in human Bel7402/5-FU cells assessed as ratio of P-gp to beta-actin level at 0.05 uM after 48 hrs by Western blot analysis (reference value: 0.59); format: functional
Bel7402/5-FU [32] = experiment: Effect on MRP1 expression in human Bel7402/5-FU cells assessed as ratio of MRP1 to beta-actin level at 0.05 uM after 48 hrs by Western blot analysis (reference value: 0.58); format: functional
[33] = target: Mitogen-activated protein kinase; ERK1/ERK2 (Homo sapiens) (UniProt P27361+P28482); experiment: Effect on ERK1/2 phosphorylation in human Bel7402/5-FU cells assessed as ratio of phosphorylated ERK1/2 to beta-actin level at 0.05 uM after 48 hrs by Western blot analysis (reference value: 0.59); format: cell-based
Sequence of Mitogen-activated protein kinase; ERK1/ERK2 (Homo sapiens) (P27361 whole entry, looked up): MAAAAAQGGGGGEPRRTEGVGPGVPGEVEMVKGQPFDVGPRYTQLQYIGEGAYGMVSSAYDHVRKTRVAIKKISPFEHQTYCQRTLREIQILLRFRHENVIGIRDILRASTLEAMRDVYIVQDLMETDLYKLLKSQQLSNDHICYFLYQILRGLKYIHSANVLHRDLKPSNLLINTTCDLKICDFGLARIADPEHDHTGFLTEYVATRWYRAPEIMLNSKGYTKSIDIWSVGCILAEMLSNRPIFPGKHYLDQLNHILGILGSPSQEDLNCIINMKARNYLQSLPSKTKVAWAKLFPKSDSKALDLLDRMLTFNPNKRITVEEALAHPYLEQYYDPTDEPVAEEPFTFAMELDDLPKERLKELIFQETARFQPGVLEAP
Sequence of Mitogen-activated protein kinase; ERK1/ERK2 (Homo sapiens) (P28482 whole entry, looked up): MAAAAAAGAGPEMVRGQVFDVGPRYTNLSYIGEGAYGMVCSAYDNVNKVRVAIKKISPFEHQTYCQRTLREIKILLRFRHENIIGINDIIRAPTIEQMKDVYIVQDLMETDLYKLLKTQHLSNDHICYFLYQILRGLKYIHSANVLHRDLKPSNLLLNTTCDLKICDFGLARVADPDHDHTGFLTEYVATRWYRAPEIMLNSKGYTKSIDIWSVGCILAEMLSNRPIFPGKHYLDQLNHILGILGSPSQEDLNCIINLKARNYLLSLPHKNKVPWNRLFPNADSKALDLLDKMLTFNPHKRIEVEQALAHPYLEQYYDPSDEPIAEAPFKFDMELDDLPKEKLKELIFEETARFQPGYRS

[34] = target: Signal transducer and activator of transcription 3 (Homo sapiens) (UniProt P40763); experiment: Effect on STAT3 phosphorylation in human Bel7402/5-FU cells assessed as ratio of phosphorylated STAT3 to beta-actin level at 0.05 uM after 48 hrs by Western blot analysis (reference value: 0.3); format: cell-based
Sequence of Signal transducer and activator of transcription 3 (Homo sapiens) (P40763 whole entry): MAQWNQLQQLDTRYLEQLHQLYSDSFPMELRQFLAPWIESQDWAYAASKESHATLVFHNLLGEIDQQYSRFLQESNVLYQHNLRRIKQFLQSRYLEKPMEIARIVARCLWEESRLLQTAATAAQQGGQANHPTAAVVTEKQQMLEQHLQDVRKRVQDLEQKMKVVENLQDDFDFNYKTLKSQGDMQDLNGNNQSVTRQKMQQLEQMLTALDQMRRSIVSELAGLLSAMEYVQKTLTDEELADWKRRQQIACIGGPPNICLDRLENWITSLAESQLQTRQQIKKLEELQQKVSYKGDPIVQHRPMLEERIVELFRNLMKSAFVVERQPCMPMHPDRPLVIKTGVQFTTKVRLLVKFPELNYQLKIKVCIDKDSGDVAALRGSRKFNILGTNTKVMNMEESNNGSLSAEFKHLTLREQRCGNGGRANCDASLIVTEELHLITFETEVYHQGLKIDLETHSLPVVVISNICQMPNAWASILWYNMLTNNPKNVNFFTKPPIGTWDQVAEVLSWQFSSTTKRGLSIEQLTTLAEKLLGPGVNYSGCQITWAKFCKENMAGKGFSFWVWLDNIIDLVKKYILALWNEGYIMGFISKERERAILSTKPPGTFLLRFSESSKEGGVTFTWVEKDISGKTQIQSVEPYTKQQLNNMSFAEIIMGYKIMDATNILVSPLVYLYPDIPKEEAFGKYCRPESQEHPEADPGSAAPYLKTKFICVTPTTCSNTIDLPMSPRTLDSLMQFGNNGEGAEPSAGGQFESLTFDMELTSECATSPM

[35] = target: RAC-alpha serine/threonine-protein kinase (Homo sapiens) (UniProt P31749); experiment: Effect on AKT phosphorylation in human Bel7402/5-FU cells assessed as ratio of phosphorylated AKT to beta-actin level at 0.05 uM after 48 hrs by Western blot analysis (reference value: 0.39); format: cell-based
Sequence of RAC-alpha serine/threonine-protein kinase (Homo sapiens) (P31749 whole entry): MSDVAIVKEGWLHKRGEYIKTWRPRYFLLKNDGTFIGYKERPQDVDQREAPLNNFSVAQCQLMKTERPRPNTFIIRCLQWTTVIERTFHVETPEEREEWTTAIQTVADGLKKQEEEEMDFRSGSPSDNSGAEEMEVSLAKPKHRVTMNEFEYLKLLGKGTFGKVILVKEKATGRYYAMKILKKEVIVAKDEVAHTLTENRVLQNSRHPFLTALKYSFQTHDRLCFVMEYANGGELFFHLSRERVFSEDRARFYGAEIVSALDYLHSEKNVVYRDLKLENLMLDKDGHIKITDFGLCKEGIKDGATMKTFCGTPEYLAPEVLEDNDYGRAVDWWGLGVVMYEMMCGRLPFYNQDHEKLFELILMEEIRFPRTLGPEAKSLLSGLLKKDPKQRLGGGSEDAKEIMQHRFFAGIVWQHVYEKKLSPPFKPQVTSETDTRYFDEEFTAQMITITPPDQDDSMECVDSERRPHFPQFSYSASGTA

Compound: COc1cc([C@@H]2c3cc4c(cc3[C@H](O)[C@H]3COC(=O)[C@H]23)OCO4)cc(OC)c1OC [PODOFILOX]
- IC50 (Bel-7402): 0.052 µM
- IC50 (Bel7402/5-FU [1]): 0.044 µM
- IC50 (L02): 0.022 µM
- Ratio IC50 [2]: 0.84
- Activity (Bel7402/5-FU [3]): 17.28%
- Activity (Bel7402/5-FU [4]): 9.1%
- Activity (Bel7402/5-FU [5]): 73.62%
- Activity (Bel7402/5-FU [6]): Active
- Activity (Bel7402/5-FU [7]): Active
- Activity (Bel7402/5-FU [8]): Active
- Activity (Bel7402/5-FU [9]): Active
- Activity (Bel7402/5-FU [10]): 63.7%
- Activity (Bel7402/5-FU [11]): 8.48%
- Activity (Bel7402/5-FU [12]): 23.17%
- Activity (Bel7402/5-FU [13]): 4.65%
- Activity (Bel7402/5-FU [14]): Active
- Activity (Bel7402/5-FU [15]): Active
- Activity (Bel7402/5-FU [16]): Active
- Ratio (Bel7402/5-FU [17]): 0.33
- Ratio (Bel7402/5-FU [18]): 0.29
- Ratio (Bel7402/5-FU [19]): 0.27
- Ratio (Bel7402/5-FU [20]): 0.41
- Ratio (Bel7402/5-FU [21]): 0.27
- Ratio (Bel7402/5-FU [22]): 0.26
- Ratio (Bel7402/5-FU [23]): 0.26
- Ratio (Bel7402/5-FU [24]): 0.38
- Ratio (Bel7402/5-FU [25]): 0.22
- Ratio (Bel7402/5-FU [26]): 0.13
- Ratio (Bel7402/5-FU [27]): 0.28
- Ratio (Bel7402/5-FU [28]): 0.43
- Ratio (Bel7402/5-FU [29]): 0.39
- Ratio (Bel7402/5-FU [30]): 0.18
- Ratio (Bel7402/5-FU [31]): 0.49
- Ratio (Bel7402/5-FU [32]): 0.52
- Ratio [33]: 0.38
- Ratio [34]: 0.41
- Ratio [35]: 0.35
